Experimental data as given in patent US9242966B2, “Phthalazines as potassium ion channel inhibitors” (BRISTOL-MYERS SQUIBB COMPANY, priority 2013, dated 2016).

Tests used:
[1] = Rat PO PK with pH modulators (Pentagastrin or Famotidine pre-treatment); type: in vivo
Text: (§1) Example 16 is a prodrug of Example 1.

[2] = In vivo rat PK evaluation of pro-drug cleavage to parent; settings: all doses administered PO, parent = Example 1
Text: as §1

human KV 1.5 = target: T1, human KV 1.5 (Homo sapiens, UniProt P22460); test: Block of IKur current in patch clamped L-929 cells expressing human Kv1.5; type: cell-based; settings: L929, 0.3 μM; patch clamped mammalian L-929 cells stably expressing human Kv1.5 (IKur); read-out: KV1_5% Inh L929 @0.3 μM
T1 construct: expressed in transfected cells; host or cells: mammalian L-929 cells (mouse fibroblast line)
T1 sequence (P22460 whole entry): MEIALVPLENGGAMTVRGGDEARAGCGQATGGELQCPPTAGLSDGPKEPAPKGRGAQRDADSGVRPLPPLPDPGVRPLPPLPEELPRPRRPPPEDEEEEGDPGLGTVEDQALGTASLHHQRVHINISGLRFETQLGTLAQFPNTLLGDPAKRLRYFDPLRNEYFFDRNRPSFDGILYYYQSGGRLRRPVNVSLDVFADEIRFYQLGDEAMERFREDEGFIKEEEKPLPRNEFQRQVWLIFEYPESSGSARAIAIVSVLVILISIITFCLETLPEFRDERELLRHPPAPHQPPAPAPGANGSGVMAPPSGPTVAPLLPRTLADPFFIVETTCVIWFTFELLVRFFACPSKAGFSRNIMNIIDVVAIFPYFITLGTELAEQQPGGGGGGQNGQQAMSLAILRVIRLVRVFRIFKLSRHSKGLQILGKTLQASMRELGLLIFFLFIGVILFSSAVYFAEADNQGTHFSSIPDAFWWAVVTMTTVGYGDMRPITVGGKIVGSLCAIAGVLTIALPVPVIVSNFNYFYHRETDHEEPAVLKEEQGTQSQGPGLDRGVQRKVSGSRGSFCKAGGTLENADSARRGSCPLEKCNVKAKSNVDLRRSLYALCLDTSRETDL
Text: 1. Synders, D. J.; et al., “A rapidly activating and slowly inactivating potassium channel cloned from human heart: functional analysis after stable mammalian cell culture expression”, J. Gen. Physiol., 101:513-543 (1993). […]

For O=P(O)(O)NS(=O)(=O)c1cncc(-c2nnc(NCc3ccccn3)c3c(-c4ccccc4)cccc23)c1 [Example 16, 5-(5-Phenyl-4-(pyridin-2-ylmethylamino)phthalazin-1-yl)pyridin-3-ylsulfonylphosphoramidic acid], the “Effect of pH modulators on PO PK (pH dependent absorption)” value [1] was “mitigated the pH dependent absorption” and the “Pro-drug cleavage to the respective parent compound” value [2] was “Pro-drug cleavage to the respective parent compound was demonstrated”.
Molecule NS(=O)(=O)c1cncc(-c2nnc(NCc3ccccc3)c3c(-c4ccccc4)cccc23)c1 [Example 8, 5-(4-(Benzylamino)-5-phenylphthalazin-1-yl)pyridine-3-sulfonamide] has an inhibition at 0.3 µM (human KV 1.5) of 90.5%.
Work on CC(=O)Nc1ccc(-c2nnc(NCc3ccccc3)c3c(-c4ccccc4)cccc23)cn1 [Example 21, N-(5-(4-(Benzyl-amino)-5-phenylphthalazin-1-yl)pyridin-2-yl)acetamide] yielded an inhibition at 0.3 µM (human KV 1.5) of 97.9%.
Molecule NS(=O)(=O)c1cncc(-c2nnc(NC[C@H](O)c3ccccc3)c3c(-c4ccccc4)cccc23)c1 [Example 41, (R)-5-(4-((2-Hydroxy-2-phenylethyl)amino)-5-phenylphthalazin-1-yl)pyridine-3-sulfonamide] has an inhibition at 0.3 µM (human KV 1.5) of 93.5%.
For O=C(N[C@H]1CCC[C@@H]1OCc1ccccc1)c1cncc(-c2nnc(NCc3ccccn3)c3c(-c4ccccc4)cccc23)c1 [Example 49], the inhibition at 0.3 µM (human KV 1.5) was 93.9%.
Work on CS(=O)(=O)Nc1cccc(NC(=O)c2cncc(-c3nnc(NCc4ccccn4)c4c(-c5ccccc5)cccc34)c2)c1 [Example 14, N-(3-(Methylsulfonamido)phenyl)-5-(5-phenyl-4-(pyridin-2-ylmethylamino)phthalazin-1-yl)nicotinamide] yielded an inhibition at 0.3 µM (human KV 1.5) of 71%.
NS(=O)(=O)c1cncc(-c2nnc(NCc3ccccc3F)c3c(-c4ccccc4)cccc23)c1 [Example 31, 5-(4-((2-Fluorobenzyl)amino)-5-phenylphthalazin-1-yl)pyridine-3-sulfonamide] gave an inhibition at 0.3 µM (human KV 1.5) of 87.4%.
Work on CC(C)CC(=O)Nc1cncc(-c2nnc(NCc3ccccn3)c3c(-c4ccccc4)cccc23)c1 [Example 30, 3-Methyl-N-(5-(5-phenyl-4-((pyridin-2-ylmethyl)amino)phthalazin-1-yl)pyridin-3-yl)butanamide] yielded an inhibition at 0.3 µM (human KV 1.5) of 92.5%.
For COc1ncc(-c2nnc(NCc3ccccc3)c3c(-c4ccccc4)cccc23)cn1 [Example 26, N-Benzyl-4-(2-methoxy-pyrimidin-5-yl)-8-phenylphthalazin-1-amine], the inhibition at 0.3 µM (human KV 1.5) was 93.1%.
